Data from the supplement of paper PMC10307832.

Columns and labels:
Assay in all cases: relative viability (nuclei count vs DMSO), 5 days (fraction); higher = more cells survive
Pictilisib + Alpelisib = compound: CS(=O)(=O)N1CCN(Cc2cc3nc(-c4cccc5[nH]ncc45)nc(N4CCOCC4)c3s2)CC1 [Pictilisib] + Cc1nc(NC(=O)N2CCC[C@H]2C(N)=O)sc1-c1ccnc(C(C)(C)C(F)(F)F)c1 [Alpelisib] (partner 2 µM)
In short: (§1)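 Lung cancer cell lines, seeded in 1536-well plates, were treated the following day by pin tool with a single drug or with five library-drug doses (not always all listed) in √10 steps on top of a fixed anchor-drug dose. Cells were fixed and nuclei stained in one step after 5 days, and nuclei were counted. Relative viability is the nuclei count for treated wells divided by that for vehicle wells, reported as medians of duplicate plates.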

MK-2206 + Foretinib = compound: NC1(c2ccc(-c3nc4ccn5c(=O)[nH]nc5c4cc3-c3ccccc3)cc2)CCC1 [MK-2206] + COc1cc2c(Oc3ccc(NC(=O)C4(C(=O)Nc5ccc(F)cc5)CC4)cc3F)ccnc2cc1OCCCN1CCOCC1 [Foretinib] (partner 0.25 µM)
In short: as §1

MK-2206 + Olaparib = compound: NC1(c2ccc(-c3nc4ccn5c(=O)[nH]nc5c4cc3-c3ccccc3)cc2)CCC1 [MK-2206] + O=C(c1cc(Cc2n[nH]c(=O)c3ccccc23)ccc1F)N1CCN(C(=O)C2CC2)CC1 [Olaparib] (partner 8 µM)
In short: as §1

MK-2206 + Vorinostat = compound: NC1(c2ccc(-c3nc4ccn5c(=O)[nH]nc5c4cc3-c3ccccc3)cc2)CCC1 [MK-2206] + O=C(CCCCCCC(=O)Nc1ccccc1)NO [Vorinostat] (partner 1 µM)
In short: as §1

Pictilisib + Bortezomib = compound: CS(=O)(=O)N1CCN(Cc2cc3nc(-c4cccc5[nH]ncc45)nc(N4CCOCC4)c3s2)CC1 [Pictilisib] + CC(C)C[C@H](NC(=O)[C@H](Cc1ccccc1)NC(=O)c1cnccn1)B(O)O [Bortezomib] (partner 0.002 µM)
In short: as §1

UMC-11 showed a relative viability (Pictilisib + Alpelisib; first compound 0.02 µM) of 0.942, a relative viability (Pictilisib + Alpelisib; first compound 0.06325 µM) of 1.05 and a relative viability (Pictilisib + Alpelisib; first compound 0.6325 µM) of 1.14. The relative viability (Pictilisib + Alpelisib; first compound 2 µM) was 1.17, the relative viability (MK-2206 + Foretinib; first compound 0.01 µM) was 1.08 and the relative viability (MK-2206 + Foretinib; first compound 0.03162 µM) was 1.1. The relative viability (MK-2206 + Foretinib; first compound 0.3162 µM) was 1.16, the relative viability (MK-2206 + Foretinib; first compound 1 µM) was 1.05 and the relative viability (MK-2206 + Olaparib; first compound 0.01 µM) was 0.52. It also gave a relative viability (MK-2206 + Olaparib; first compound 0.03162 µM) of 1.16, a relative viability (MK-2206 + Olaparib; first compound 0.3162 µM) of 0.381 and a relative viability (MK-2206 + Olaparib; first compound 1 µM) of 0.363. It also gave a relative viability (MK-2206 + Vorinostat; first compound 0.01 µM) of 0.388, a relative viability (MK-2206 + Vorinostat; first compound 0.03162 µM) of 0.365 and a relative viability (MK-2206 + Vorinostat; first compound 0.3162 µM) of 0.416. The relative viability (MK-2206 + Vorinostat; first compound 1 µM) was 0.379, the relative viability (Pictilisib + Bortezomib; first compound 0.02 µM) was 0.828 and the relative viability (Pictilisib + Bortezomib; first compound 0.06325 µM) was 0.902. It also gave a relative viability (Pictilisib + Bortezomib; first compound 0.6325 µM) of 0.78 and a relative viability (Pictilisib + Bortezomib; first compound 2 µM) of 0.768.
